Data: patent EP4745139A1, “COMPOUND FOR TREATING AND PREVENTING RESPIRATORY SYNCYTIAL VIRUS INFECTION DISEASES” (CSPC Zhongqi Pharmaceutical Technology (Shijiazhuang) Co., …, priority 2023, dated 2025)

Tested on: RSV strain A2
Assay: Antiviral detection test against RSV strain A2 based on ELISA method (Hep-2 cells)
Assay type: cell-based, Respiratory Syncytial Virus
Details: RSV A2 virus strain, Hep-2 cells, ELISA OD450
Method: Test Example 1: Antiviral detection test of small molecules against RSV strain A2 based on ELISA method
• Source of cell line: Nanjing Kebai Biotechnology Co., Ltd. • Cell type: human laryngeal carcinoma epithelial cells Hep-2
• 96-well culture plate (Cat.No. 3610, Corning Costar); • Fetal bovine serum (Cat.No. 10099-141, GIBCO); • DMEM medium (Cat.No. 11995500BT, GIBCO); • Envision 2104 microplate reader.
• 1. Day 1: The Hep-2 cells were seeded into a 96-well plate at a density of 1×10^4 cells/well; • 2. Day 2: • A. Compound dilution: The compound in the first well was diluted to 9 µM, and 3-fold gradient dilution was performed, with a total of 10 gradients; • B. The Hep-2 cell plate prepared on Day 1 was taken out from the incubator, the supernatant was discarded, and 100 PFU/well/50 µL of the RSV A2 virus was added to each well. The plate was stood at 37°C in a 5% CO2 incubator for 2 hours, the supernatant was aspirated and discarded, and then 100 µL of the gradient-diluted compound or DMEM maintenance medium containing 2% FBS was added to each well; • 3. Day 5: • A. Add fixative: The gradient-diluted compound or medium was discarded from the wells, and 100 µL/well of fixative (4% paraformaldehyde) was added. The plate was stood at room temperature for 10 minutes, and then was washed once with 250 µL PBS; • B. 100 µL/well of a blocking solution was added, and the plate was incubated at 37°C in a 5% CO2 incubator for 30 minutes; • C. After incubation, the detection antibody (Anti RSV Fpro) was added at 0.3 µg/50 µL/well (6 µg/mL), and the plate was incubated at 37°C in a 5% CO2 incubator for 1 hour; • D. After incubation, the HRP secondary antibody was added (diluted 10,000-fold with 0.2% BSA), and the plate was incubated at 37°C in a 5% CO2 incubator for 1 hour; • E. After incubation, the wells were washed for 4 times with PBST, 250 µL/well, each washing was allowed to stand for 5 minutes, and the liquid in the wells was shaken off after completion of the washing; • F. 100 µL/well of a development solution was added, the plate was incubated at room temperature in the dark for 20 minutes, and 50 µL/well of a reaction termination solution was added. The plate was tapped gently to mix the solutions, and the absorbance at 450 nm was measured using the microplate reader. • 4. Data analysis • Inhibition rate of the compound against the virus = 100% - (SC - CC)/(VC - CC) × 100% • SC: OD450 value of the sample (cells + test compound + virus) • CC: OD450 value of the normal growing cell control (cells) • VC: OD450 value of the virus growth control (cells + virus)
The software Graphpad Prism 6 was used, and the calculation formula XY-analysis/Nonlinear regression (curve fit)/Dose response-Inhibition/log (inhibition) vs. response-Variable slope (four parameters) was adopted to fit the IC50 curve and calculate the IC50 value.

Row | Molecule | IC50 [nM]
1 | Cc1ccc2nc(N3CCS(=O)(=NCC4CCO4)c4ccccc4C3)nc(N3CC[C@@H](N)C3)c2c1 (some centres unmarked) [Example 4-39] | < 10
2 | 4-(4-(((3-aminooxetan-3-yl)methyl)amino)-6-methylquinazolin-2-yl)-1-((deuteromethyl)imino)-2,3,4,5-tetrahydro-1H-1λ^4-benzo[f][1,4]thiazepine-1-oxide [Example 2-24] | < 10
3 | Cc1ccc2nc(N3CCS(=O)(=NC(N)=O)c4ccccc4C3)nc(NCC3(N)COC3)c2c1 (centres unmarked) [Example 2-16, 1-(4-(4-(((3-aminooxetan-3-yl)methyl)amino)-6-methylquinazolin-2-yl)-1-oxido-2,3,4,5-tetrahydro-1λ^4-benzo[f][1,4]thiazepin-1-ylidene)urea] | > 10

Same assay, conditions: human respiratory syncytial virus; RSV A2 virus strain, Hep-2 cells, ELISA OD450

Row | Molecule | IC50 [nM]
4 | NC1(CNc2nc(N3CCS(=O)(=NC4CC4)c4ccccc4C3)nc3ccc(C(F)F)cc23)COC1 (centres unmarked) [Example 2-46, 4-(4-(((3-aminooxetan-3-yl)methyl)amino)-6-(difluoromethyl)quinazolin-2-yl)-1-(cyclopropylimino)-2,3,4,5-tetrahydro-1H-1λ^4-benzo[f][1,4]thiazepine-1-oxide] | < 10
5 | CNC(=O)N=S1(=O)CCN(c2nc(NCC3(N)COC3)c3cc(C)ccc3n2)Cc2ccccc21 (centres unmarked) [Example 2-37, 1-(4-(4-(((3-aminooxetan-3-yl)methyl)amino)-6-methylquinazolin-2-yl)-1-oxido-2,3,4,5-tetrahydro-1λ^4-benzo[f][1,4]thiazepin-1-ylidene)-3-methylurea] | < 10
6 | Cc1ccc2nc(N3CCS(=O)(=NC4CC4)c4ccccc4C3)nc(N3CC(O)(CN)C3)c2c1 (centres unmarked) [Example 4-2, 4-(4-(3-(aminomethyl)-3-hydroxyazetidin-1-yl)-6-methylquinazolin-2-yl)-1-(cyclopropylimino)-2,3,4,5-tetrahydro-benzo[f][1,4]thiazepine-1-oxide] | < 10
7 | Cc1ccc2nc(N3CCS(=O)(=NCCF)c4ccccc4C3)nc(NCC3(N)COC3)c2c1 (centres unmarked) [Example 4-5, 4-(4-(((3-aminooxetan-3-yl)methyl)amino)-6-methylquinazolin-2-yl)-1-((2-fluoroethyl)imino)-2,3,4,5-tetrahydrobenzo[f][1,4]thiazepine-1-oxide] | < 10
8 | COCCCN=S1(=O)CCN(c2nc(N3CC[C@@H](N)C3)c3cc(C)ccc3n2)Cc2ccccc21 (some centres unmarked) [Example 4-73] | < 10
9 | NC1(CNc2nc(N3CCS(=O)(=NC4CCC4)c4ccccc4C3)nc3ccc(C(F)F)cc23)COC1 (centres unmarked) [Example 4-16, 4-(4-(((3-aminooxetan-3-yl)methyl)amino)-6-(difluoromethyl)quinazolin-2-yl)-1-(cyclobutylimino)-2,3,4,5-tetrahydro-benzo[f][1,4]thiazepine-1-oxide] | < 10
10 | N[C@@H]1CCN(c2nc(N3CCS(=O)(=NC4CC4)c4ccccc4C3)nc3ccc(C(F)F)cc23)C1 (some centres unmarked) [Example 4-28] | < 10
11 | Cc1ccc2nc(N3CCS(=O)(=NCCC(C)(C)O)c4ccccc4C3)nc(N3CC[C@@H](N)C3)c2c1 (some centres unmarked) [Example 4-56] | < 10
12 | Cc1ccc2nc(N3CCS(=O)(=NCCCO)c4ccccc4C3)nc(N3CC[C@H](N)C3)c2c1 (some centres unmarked) [Example 4-64] | < 10
13 | Cc1ccc2nc(N3CCS(=O)(=NC4CC4)c4ccccc4C3)nc(N3CC(N)(CO)C3)c2c1 (centres unmarked) [Example 4-32, 4-(4-(3-amino-3-(hydroxymethyl)azetidin-1-yl)-6-methylquinazolin-2-yl)-1-(cyclopropylimino)-2,3,4,5-tetrahydro-benzo[f][1,4]thiazepine-1-oxide] | < 10
14 | CC(=O)N=S1(=O)CCN(c2nc(NCC3(N)COC3)c3cc(C)ccc3n2)Cc2ccccc21 (centres unmarked) [Example 2-31, N-(4-(4-(((3-aminooxetan-3-yl)methyl)amino)-6-methylquinazolin-2-yl)-1-oxido-2,3,4,5-tetrahydro-1λ^4-benzo[f][1,4]thiazepin-1-ylidene)acetamide] | < 10
15 | Cc1ccc2nc(N3CCS(=O)(=NC(=O)C4(F)CC4)c4ccccc4C3)nc(NCC3(N)COC3)c2c1 (centres unmarked) [Example 2-32, N-(4-(4-(((3-aminooxetan-3-yl)methyl)amino)-6-methylquinazolin-2-yl)-1-oxido-2,3,4,5-tetrahydro-1λ^4-benzo[f][1,4]thiazepin-1-ylidene)-1-fluorocyclopropane-1-carboxamide] | < 10
16 | Cc1ccc2nc(N3CCS(=O)(=NCCCC#N)c4ccccc4C3)nc(N3CC[C@@H](N)C3)c2c1 (some centres unmarked) [Example 4-47] | < 10
17 | N[C@H]1CCN(c2nc(N3CCS(=O)(=NCCCO)c4ccccc4C3)nc3ccc(C(F)F)cc23)C1 (some centres unmarked) [Example 4-66] | < 10
18 | CN=S1(=O)CCN(c2nc(NCC3(N)COC3)c3cc(C)ccc3n2)Cc2ccccc21 (centres unmarked) [Example 2-14, 4-(4-(((3-aminooxetan-3-yl)methyl)amino)-6-methylquinazolin-2-yl)-1-(methylimino)-2,3,4,5-tetrahydro-1H-1λ^4-benzo[f][1,4]thiazepine-1-oxide] | < 10
19 | Cc1ccc2nc(N3CCS(=O)(=NCC(F)F)c4ccccc4C3)nc(NCC3(N)COC3)c2c1 (centres unmarked) [Example 4-6, 4-(4-(((3-aminooxetan-3-yl)methyl)amino)-6-methylquinazolin-2-yl)-1-((2,2-difluoroethyl)imino)-2,3,4,5-tetrahydrobenzo[f][1,4]thiazepine-1-oxide] | < 10
20 | CCN=S1(=O)CCN(c2nc(NCC3(N)COC3)c3cc(C)ccc3n2)Cc2ccccc21 (centres unmarked) [Example 2-43, 4-(4-(((3-aminooxetan-3-yl)methyl)amino)-6-methylquinazolin-2-yl)-1-(ethylimino)-2,3,4,5-tetrahydro-1H-1λ^4-benzo[f][1,4]thiazepine-1-oxide] | < 10
21 | Cc1ccc2nc(N3CCS(=O)(=NC4CC4)c4ccccc4C3)nc(N[C@H]3C[C@@H](N)C3)c2c1 (stereo partly drawn) [Example 4-13, 4-(4-(((1R,3S)-3-aminocyclobutyl)amino)-6-methylquinazolin-2-yl)-1-(cyclopropylimino)-2,3,4,5-tetrahydro-benzo[f][1,4]thiazepine-1-oxide] | < 10
22 | COC(=O)C1(CN)CN(c2nc(N3CCS(=O)(=NC4CC4)c4ccccc4C3)nc3ccc(C)cc23)C1 (centres unmarked) [Example 4-57, methyl 3-(aminomethyl)-1-(2-(1-(cyclopropylimino)-1-oxido-1,2,3,5-tetrahydro-benzo[f][1,4]thiazepin-4-yl)-6-methylquinazolin-4-yl)azetidine-3-carboxylate] | < 10
23 | Cc1ccc2nc(N3CCS(=N)(=O)c4ccccc4C3)nc(NCC3(N)COC3)c2c1 (centres unmarked) [Example 2-23, 4-(4-(((3-aminooxetan-3-yl)methyl)amino)-6-methylquinazolin-2-yl)-1-imino-2,3,4,5-tetrahydro-1H-1λ^4-benzo[f][1,4]thiazepine-1-oxide] | < 10
24 | CC(O)(CCN=S1(=O)CCN(c2nc(N3CC[C@H](N)C3)c3cc(C(F)F)ccc3n2)Cc2ccccc21)C(F)(F)F (stereo partly drawn) [Example 4-63, 4-(4-((S)-3-aminopyrrolidin-1-yl)-6-(difluoromethyl)quinazolin-2-yl)-1-((4,4,4-trifluoro-3-hydroxy-3-methylbutyl)imino)-2,3,4,5-tetrahydro-benzo[f] [1,4]thiazepine-1-oxide] | < 10
25 | Cc1ccc2nc(N3CCS(=O)(=NCCS(C)(=O)=O)c4ccccc4C3)nc(N3CC[C@H](N)C3)c2c1 (some centres unmarked) [Example 4-65] | < 10
26 | Cc1ccc2nc(N3CCS(=O)(=NCC4CCOC4)c4ccccc4C3)nc(N3CC[C@H](N)C3)c2c1 (some centres unmarked) [Example 4-72] | < 10
27 | Cc1ccc2nc(N3CCS(=O)(=NCC4CCCO4)c4ccccc4C3)nc(N3CC[C@H](N)C3)c2c1 (some centres unmarked) [Example 4-70] | < 10
28 | Cc1ccc2nc(N3CCS(=O)(=Nc4cnn(C)c4)c4ccccc4C3)nc(NCC3(N)COC3)c2c1 (centres unmarked) [Example 2-38, 4-(4-(((3-aminooxetan-3-yl)methyl)amino)-6-methylquinazolin-2-yl)-1-((1-methyl-1H-pyrazol-4-yl)imino)-2,3,4,5-tetrahydro-1H-1λ^4-benzo[f][1,4]thiazepine-1-oxide] | > 10

Same assay, conditions: ratio of IC50 values against RSV A2 virus strain; control compound AK0529

Row | Molecule | AK0529 IC50 / IC50 of the compounds of the present invention
29 | NC1(CNc2nc(N3CCS(=O)(=NC4CC4)c4ccccc4C3)nc3ccc(C(F)F)cc23)COC1 (centres unmarked) [Example 2-46, 4-(4-(((3-aminooxetan-3-yl)methyl)amino)-6-(difluoromethyl)quinazolin-2-yl)-1-(cyclopropylimino)-2,3,4,5-tetrahydro-1H-1λ^4-benzo[f][1,4]thiazepine-1-oxide] | ratio ≥20
30 | NC1(CNc2nc(N3CCS(=O)(=NC4CCC4)c4ccccc4C3)nc3ccc(C(F)F)cc23)COC1 (centres unmarked) [Example 4-16, 4-(4-(((3-aminooxetan-3-yl)methyl)amino)-6-(difluoromethyl)quinazolin-2-yl)-1-(cyclobutylimino)-2,3,4,5-tetrahydro-benzo[f][1,4]thiazepine-1-oxide] | ratio ≥20
31 | 4-(4-(((3-aminooxetan-3-yl)methyl)amino)-6-methylquinazolin-2-yl)-1-((deuteromethyl)imino)-2,3,4,5-tetrahydro-1H-1λ^4-benzo[f][1,4]thiazepine-1-oxide [Example 2-24] | ratio ≥20
32 | COC(=O)C1(CN)CN(c2nc(N3CCS(=O)(=NC4CC4)c4ccccc4C3)nc3ccc(C)cc23)C1 (centres unmarked) [Example 4-57, methyl 3-(aminomethyl)-1-(2-(1-(cyclopropylimino)-1-oxido-1,2,3,5-tetrahydro-benzo[f][1,4]thiazepin-4-yl)-6-methylquinazolin-4-yl)azetidine-3-carboxylate] | ratio ≥20
